# Experimental data: US20150164833A1, “NUTRITIONAL COMPOSITION CONTAINING A NEUROLOGIC COMPONENT OF URSOLIC ACID AND USES THEREOF” (MEAD JOHNSON NUTRITION COMPANY, priority 2013, published 2015)
# System: human adipose-derived stem cells (hADSCs)
# Experiment: Neurogenesis (neuronal differentiation) of hADSCs in serum-free neuronal differentiation medium, phase contrast microscopy
# Format: cell-based
# Description: This example describes the neurogenesis of hADSCs by ursolic acid as compared to DHA (positive control) and hADSCs cultured in the absence of either ursolic acid and DHA (negative control). Ursolic acid was purchased from Sigma-Aldrich (Cat. No. U6753) and diluted in 95% ethanol to a concentration of […], giving a clear faint yellow stick solution that was then stored at −20° C.
# hADSCs were purchased from Invitrogen®, also known as Life Technologies, of Carlsbad, Calif., U.S.A., and were cultured as near confluent monolayers in 100 mm culture plates within a maintenance medium consisting of Complete MesenPro RS™ medium with growth supplement and L-glutamine, also obtained from Invitrogen®. The process of culturing, passage, and seeding the hADSCs is described below. The cells were then subjected to removal and reseeded at a density of 0.5-1×10^4 cells/mL onto a 24-well culture plate with poly-L-ornithine and bovine plasma fibronectin coating. The culture medium is the same as the aforementioned maintenance medium. Three days after seeding, the culture medium was changed to a neuronal differentiation medium.
# The subculture of hADSCs was performed when cell culture reached confluence. […]
structure (smiles),measurement,setting,value
"C[C@H]1[C@H](C)CC[C@]2(C(=O)O)CC[C@]3(C)C(=CC[C@@H]4[C@@]5(C)CC[C@H](O)C(C)(C)[C@@H]5CC[C@]43C)[C@H]12 [ursolic acid, 3-beta-3-hydroxy-urs-12-ene-28-oic-acid]",neurogenesis of hADSCs (cells undergoing neurogenesis),"30-120 μg/mL ursolic acid, phase contrast microscopy at 24, 48 and 96 hours",A large percentage of cells underwent neurogenesis
same,neuronal morphology of hADSCs,"ursolic acid at 60 μg/mL, phase contrast microscopy, FIG. 1C",neuronal morphological changes and neurite outgrowth
